The values that follow come from patent publication US20260315565A1, “ANTIOXIDANT-CONTAINING EYE DROP FORMULATIONS AND METHODS OF PREVENTION AND/OR TREATMENT USING SAME” (Marizyme, Inc., priority 2022, published 2026).

Data set [1] is described as follows: accelerated stability of glutathione (total thiols) in eye drop formulations (UV-VIS with DTNB, 412 nm). Format: physicochemical. To be noted: stored at 40° C. for 30 days. On the procedure:
(§1) Namely, appropriate amounts of the various components were weighed and then mixed with “Water for Injection” (WFI) at room temperature in a laminar flow hood to achieve the concentrations listed in Table 1. The various components were dissolved in the WFI using a magnetic stir bar and stirring at 350 rpm, or any appropriate mixing speed, until dissolution was complete. The final pH of each formulation was adjusted to pH 3.5 or pH 5.0, as listed in Table 1, using 5N HCl or 5N NaOH, respectively. The resulting solutions were then passed through a 0.21, […] filter while filling sterile vials with the respective formulations for use in stability studies. […]
(§2) At each point in the testing schedule, physical properties, such as clarity, color, odor, particle count and the like, of the formulations stored in the pulled vials were examined by physical observation. Concentrations of the antioxidants were also measured, and analytical tests of the formulations in the vials were carried out according to the protocol listed in Table 3.
(§3) The analytical assay method for stability testing of total thiols and ascorbic acid in eyedrop formulations (UV-VIS in Table 3) are performed as follows. […] Both components are measured on one sample preparation. […] By applying the appropriate dilution and conversion factors, the concentration of each component in the formulation can be calculated. […]

The nature of data set [2]: accelerated stability of ascorbic acid in eye drop formulations (UV-VIS, 260 nm). Format: physicochemical. The settings on record: stored at 40° C. for 30 days; pH 3.5 vs pH 5. On the procedure: as §1, §2, §3

As for `N[C@@H](CCC(=O)N[C@@H](CS)C(=O)NCC(=O)O)C(=O)O` [glutathione, L-glutathione], the “effect of higher molar ratios of ascorbic acid on glutathione stability” value in data set [1] is listed as “destabilizing effect of higher molar ratios of ascorbic acid on glutathione”.

Regarding `O=C1O[C@H]([C@@H](O)CO)C(O)=C1O` [ascorbic acid, L-ascorbic acid], the “stability of ascorbic acid” value in data set [2] is “more stable at the lower pH of 3.5 compared to pH 5”.
